The source of these data is PubChem BioAssay AID248 (DTP/NCI, 2004).

Several values for one entry are separate records, joined by “and”; a condition that tells them apart may be missing. Identical values can stand only once. Inconclusive results and toxic doses are left out.

The test system of the assay is L1210 leukemia ip in BDF1 mice, survival T/C. Kind of assay: NCI In Vivo Anticancer Drug Screen. Data for tumor model L1210 Leukemia (intraperitoneal) in B6D2F1 (BDF1) mice. The conditions noted are these: endpoint: mean survival time, higher = longer survival. The gist of the method: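 Antitumor effect is assessed in tumor-bearing animals. Survival in the compound arm is compared with a vehicle-dosed control arm and expressed as their quotient.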

Where [1] appears, read: dose: 100.0 mg/kg/injection, schedule: Q01DX009 (ip), vehicle: saline with Tween-80.
Setting [2] is: dose: 200.0 mg/kg/injection, schedule: Q01DX009 (ip), vehicle: saline with Tween-80.
[3] abbreviates: dose: 400.0 mg/kg/injection, schedule: Q01DX009 (ip), vehicle: saline with Tween-80.
[4] abbreviates: dose: 50.0 mg/kg/injection, schedule: Q01DX001 (ip), vehicle: carboxymethylcellulose (CMC).
Where [5] appears, read: dose: 100.0 mg/kg/injection, schedule: Q01DX001 (ip), vehicle: carboxymethylcellulose (CMC).
Where [6] appears, read: dose: 200.0 mg/kg/injection, schedule: Q01DX001 (ip), vehicle: carboxymethylcellulose (CMC).
[7] abbreviates: dose: 400.0 mg/kg/injection, schedule: Q01DX001 (ip), vehicle: carboxymethylcellulose (CMC).
[8] abbreviates: dose: 100.0 mg/kg/injection, schedule: Q01DX009 (ip), vehicle: Klucel (hydroxypropylcellulose) (HPC).
Setting [9] is: dose: 100.0 mg/kg/injection, schedule: Q04DX003 (ip), vehicle: Klucel (hydroxypropylcellulose) (HPC).
The mark [10] stands for this setting: dose: 200.0 mg/kg/injection, schedule: Q01DX009 (ip), vehicle: Klucel (hydroxypropylcellulose) (HPC).
Where [11] appears, read: dose: 200.0 mg/kg/injection, schedule: Q04DX003 (ip), vehicle: Klucel (hydroxypropylcellulose) (HPC).
The mark [12] stands for this setting: dose: 400.0 mg/kg/injection, schedule: Q01DX009 (ip), vehicle: Klucel (hydroxypropylcellulose) (HPC).
Setting [13] is: dose: 400.0 mg/kg/injection, schedule: Q04DX003 (ip), vehicle: Klucel (hydroxypropylcellulose) (HPC).
Setting [14] is: dose: 50.0 mg/kg/injection, schedule: Q01DX001 (ip), vehicle: saline.
Where [15] appears, read: dose: 100.0 mg/kg/injection, schedule: Q01DX001 (ip), vehicle: saline.
Setting [16] is: dose: 200.0 mg/kg/injection, schedule: Q01DX001 (ip), vehicle: saline.
[17] abbreviates: dose: 400.0 mg/kg/injection, schedule: Q01DX001 (ip), vehicle: saline.

For `CCCC(=O)Nc1cc(C)ccc1N=Nc1ccc(C)cc1`, the T/C is, setting by setting: (dose: 100.0 mg/kg/injection, schedule: Q01DX001 (ip), vehicle: saline with Tween-80) 95 % of control; under setting [1], 97 % of control and 105 % of control; (dose: 100.0 mg/kg/injection, schedule: Q04DX002 (ip), vehicle: saline with Tween-80) 90 % of control and 92 % of control; (dose: 100.0 mg/kg/injection, schedule: Q04DX003 (ip), vehicle: saline with Tween-80) 100 % of control; (dose: 200.0 mg/kg/injection, schedule: Q01DX001 (ip), vehicle: saline with Tween-80) 103 % of control; under setting [2], 88 % of control and 90 % of control. Further, the T/C was 97 % of control and 92 % of control (dose: 200.0 mg/kg/injection, schedule: Q04DX002 (ip), vehicle: saline with Tween-80); 97 % of control (dose: 200.0 mg/kg/injection, schedule: Q04DX003 (ip), vehicle: saline with Tween-80); 98 % of control (dose: 400.0 mg/kg/injection, schedule: Q01DX001 (ip), vehicle: saline with Tween-80); 97 % of control under setting [3]; 97 % of control (dose: 400.0 mg/kg/injection, schedule: Q04DX002 (ip), vehicle: saline with Tween-80); 97 % of control (dose: 400.0 mg/kg/injection, schedule: Q04DX003 (ip), vehicle: saline with Tween-80).
For the compound `Cc1ccc(C(=O)/C(Cl)=N/O)cc1`, the T/C (dose: 50.0 mg/kg/injection, schedule: Q01DX001 (ip), vehicle: other) is 96 % of control and the T/C (dose: 100.0 mg/kg/injection, schedule: Q01DX001 (ip), vehicle: other) is 104 % of control.
For the compound `O=C(C=P(c1ccccc1)(c1ccccc1)c1ccccc1)c1ccc(Br)cc1`, the T/C was 99 % of control under setting [4], 99 % of control under setting [5], 96 % of control under setting [6] and 99 % of control under setting [7].
For the compound `COC1=C2C=[N+](C)C3C(=C2C=CC1OC)Cc1cc2c(cc13)OCO2` (stereo not given), the T/C under setting [4] was 104 % of control, the T/C under setting [5] is 107 % of control and the T/C under setting [6] is 102 % of control.
With `CCc1ccc(N=Nc2ccc(CC)cc2)cc1`, the T/C under setting [5] is 98 % of control, the T/C under setting [6] is 106 % of control and the T/C under setting [7] is 101 % of control.
`CN=C(NCCCOC)c1ccc(NC(=O)c2ccc(C(=O)Nc3ccc(C(=NC)NCCCOC)cc3)cc2)cc1`: the T/C reads like this: (dose: 4.4 mg/kg/injection, schedule: Q01DX Z (ip), vehicle: carboxymethylcellulose (CMC)) 124 % of control; (dose: 4.4 mg/kg/injection, schedule: Q01DX Z (ip), vehicle: saline) 108 % of control; (dose: 6.6 mg/kg/injection, schedule: Q01DX Z (ip), vehicle: saline) 108 % of control; (dose: 10.0 mg/kg/injection, schedule: Q01DX Z (ip), vehicle: carboxymethylcellulose (CMC)) 156 % of control; (dose: 15.0 mg/kg/injection, schedule: Q01DX Z (ip), vehicle: carboxymethylcellulose (CMC)) 179 % of control; (dose: 15.0 mg/kg/injection, schedule: Q01DX Z (ip), vehicle: saline) 155 % of control and 172 % of control. The T/C runs as follows: (dose: 30.0 mg/kg/injection, schedule: Q01DX Z (oral), vehicle: saline) 101 % of control; (dose: 60.0 mg/kg/injection, schedule: Q01DX Z (oral), vehicle: saline) 91 % of control; (dose: 120.0 mg/kg/injection, schedule: Q01DX Z (oral), vehicle: saline) 93 % of control; (dose: 240.0 mg/kg/injection, schedule: Q01DX Z (oral), vehicle: saline) 87 % of control; (dose: 480.0 mg/kg/injection, schedule: Q01DX Z (oral), vehicle: saline) 91 % of control.
As for `CCOC(=O)C(C#N)(CC/C(C)=N/Nc1ccc([N+](=O)[O-])cc1[N+](=O)[O-])C(C)COC(C)=O` (stereo not given), the T/C runs as follows: (dose: 100.0 mg/kg/injection, schedule: Q01DX001 (ip), vehicle: Klucel (hydroxypropylcellulose) (HPC)) 94 % of control; (dose: 200.0 mg/kg/injection, schedule: Q01DX001 (ip), vehicle: Klucel (hydroxypropylcellulose) (HPC)) 91 % of control; (dose: 400.0 mg/kg/injection, schedule: Q01DX001 (ip), vehicle: Klucel (hydroxypropylcellulose) (HPC)) 102 % of control.
As for `O=NN(CCCl)C(=O)NC(=O)NCCCl`, the T/C was 112 % of control (dose: 1.0 mg/kg/injection, schedule: Q01DX001 (ip), vehicle: carboxymethylcellulose (CMC)); 118 % of control (dose: 2.0 mg/kg/injection, schedule: Q01DX001 (ip), vehicle: carboxymethylcellulose (CMC)); 122 % of control (dose: 4.0 mg/kg/injection, schedule: Q01DX001 (ip), vehicle: carboxymethylcellulose (CMC)); 119 % of control (dose: 18.0 mg/kg/injection, schedule: Q01DX001 (ip), vehicle: carboxymethylcellulose (CMC)).
Consider `CCc1ccc(C(=O)NN)cc1`, for which the T/C reads like this: (dose: 25.0 mg/kg/injection, schedule: Q01DX009 (ip), vehicle: saline) 95 % of control; (dose: 50.0 mg/kg/injection, schedule: Q01DX009 (ip), vehicle: saline) 105 % of control and 113 % of control; (dose: 200.0 mg/kg/injection, schedule: Q01DX009 (ip), vehicle: saline) 117 % of control; (dose: 400.0 mg/kg/injection, schedule: Q01DX009 (ip), vehicle: saline) 123 % of control.
`COc1cc(Br)c2c(c1OC)C(=O)CC2`: the T/C under setting [8] was 94 % of control; the T/C under setting [9] is 98 % of control; the T/C under setting [10] is 96 % of control; the T/C under setting [11] was 96 % of control; the T/C under setting [12] is 98 % of control; the T/C under setting [13] was 91 % of control.
As to `C[Si](C)(C)Oc1ccccc1[Si](C)(C)c1ccccc1`, the T/C is, setting by setting: under setting [9], 101 % of control; under setting [11], 98 % of control; under setting [13], 102 % of control.
In the case of `O=C(CCCC(=O)NNC(=S)Nc1cccc2ccccc12)NNC(=S)Nc1cccc2ccccc12`, the T/C under setting [14] is 98 % of control, the T/C under setting [15] is 93 % of control, the T/C under setting [16] is 96 % of control and the T/C under setting [17] is 96 % of control.
Turning to `CC(=O)Oc1cccc(N(C)C)c1`, the T/C by setting is: (dose: 25.0 mg/kg/injection, schedule: Q04DX003 (ip), vehicle: saline) 97 % of control; (dose: 50.0 mg/kg/injection, schedule: Q04DX003 (ip), vehicle: saline) 100 % of control; (dose: 100.0 mg/kg/injection, schedule: Q01DX001 (ip), vehicle: acetone) 98 % of control; (dose: 100.0 mg/kg/injection, schedule: Q04DX003 (ip), vehicle: saline) 91 % of control.
As for `Oc1ccc(/C=N/Nc2nnc(N/N=C/c3ccc(O)c(O)c3)c3ccccc23)cc1O`, the T/C under setting [14] is 97 % of control, the T/C under setting [15] was 92 % of control, the T/C under setting [16] is 97 % of control and the T/C under setting [17] is 97 % of control.
For `Cc1cc(C)c(C)c(Br)c1C`, the T/C under setting [8] is 92 % of control; the T/C under setting [9] was 104 % of control; the T/C under setting [10] is 92 % of control; the T/C under setting [11] is 112 % of control; the T/C under setting [12] was 86 % of control; the T/C under setting [13] is 101 % of control.
As for `CCCCOP(=O)(/C=C\c1ccco1)OCCCC`, the T/C was 91 % of control (dose: 25.0 mg/kg/injection, schedule: Q01DX009 (ip), vehicle: Klucel (hydroxypropylcellulose) (HPC)); 97 % of control (dose: 50.0 mg/kg/injection, schedule: Q01DX009 (ip), vehicle: Klucel (hydroxypropylcellulose) (HPC)); 92 % of control under setting [8]; 95 % of control (dose: 100.0 mg/kg/injection, schedule: Q01DX009 (ip), vehicle: carboxymethylcellulose (CMC)).
Take `Cc1cc(Cl)ccc1NS(=O)(=O)c1cccc([N+](=O)[O-])c1`: the T/C under setting [1] is 90 % of control, the T/C under setting [2] was 90 % of control and the T/C under setting [3] was 87 % of control.
